Data on 26 molecules can be found in patent US12378224B2 (Dong-A Socio Holdings Co., Ltd., priority 2016, dated 2025).

Assay [1] has as its target human MER (528-end) (Homo sapiens (Human), UniProt Q12866). The experiment in a line: HTRF Kinase Activity Biochemical Assay (KinEASE-TK). The following applies: 10 uM ATP. The method, boiled down:
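Activity read-out is the HTRF ratio (665 nm over 620 nm emission, ×10,000; excitation 340 nm) after 1 h detection with 0.375 nM Eu3+-cryptate anti-TK antibody plus 0.062 uM SA-XL665. Preceding kinase step: human MER (528-end), biotinylated TK substrate, 1 h, room temperature.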
Background: Time-resolved FRET reads energy transfer from a long-lived donor to a nearby acceptor.

Assay [2] addresses BCR fusion to kinase domain of MerTK (Ba/F3-MerTK) (Homo sapiens, UniProt Q12866). The experiment in a line: In Cell TAM Kinase Assay Using BaF3 Cellular System. Format: cell-based, murine. To be noted: Ba/F3 BCR-kinase fusion proliferation, 72 hours, Cell Titer Glo; kinase not given; read-out: IC50. The method, boiled down: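 Ba/F3 murine pro-B cells expressing BCR–MerTK kinase-domain fusion (IL-3 independent), seeded at 1,000 cells/well onto compound and grown 72 h. Viability read by CellTiter-Glo 2.0 luminescence after 30 min at room temperature.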
In general terms: In ATP-based viability assays light output follows the ATP content of the culture.

Sequence of BCR fusion to kinase domain of MerTK (Ba/F3-MerTK) (Q12866 21-999 limits assumed, change not shown): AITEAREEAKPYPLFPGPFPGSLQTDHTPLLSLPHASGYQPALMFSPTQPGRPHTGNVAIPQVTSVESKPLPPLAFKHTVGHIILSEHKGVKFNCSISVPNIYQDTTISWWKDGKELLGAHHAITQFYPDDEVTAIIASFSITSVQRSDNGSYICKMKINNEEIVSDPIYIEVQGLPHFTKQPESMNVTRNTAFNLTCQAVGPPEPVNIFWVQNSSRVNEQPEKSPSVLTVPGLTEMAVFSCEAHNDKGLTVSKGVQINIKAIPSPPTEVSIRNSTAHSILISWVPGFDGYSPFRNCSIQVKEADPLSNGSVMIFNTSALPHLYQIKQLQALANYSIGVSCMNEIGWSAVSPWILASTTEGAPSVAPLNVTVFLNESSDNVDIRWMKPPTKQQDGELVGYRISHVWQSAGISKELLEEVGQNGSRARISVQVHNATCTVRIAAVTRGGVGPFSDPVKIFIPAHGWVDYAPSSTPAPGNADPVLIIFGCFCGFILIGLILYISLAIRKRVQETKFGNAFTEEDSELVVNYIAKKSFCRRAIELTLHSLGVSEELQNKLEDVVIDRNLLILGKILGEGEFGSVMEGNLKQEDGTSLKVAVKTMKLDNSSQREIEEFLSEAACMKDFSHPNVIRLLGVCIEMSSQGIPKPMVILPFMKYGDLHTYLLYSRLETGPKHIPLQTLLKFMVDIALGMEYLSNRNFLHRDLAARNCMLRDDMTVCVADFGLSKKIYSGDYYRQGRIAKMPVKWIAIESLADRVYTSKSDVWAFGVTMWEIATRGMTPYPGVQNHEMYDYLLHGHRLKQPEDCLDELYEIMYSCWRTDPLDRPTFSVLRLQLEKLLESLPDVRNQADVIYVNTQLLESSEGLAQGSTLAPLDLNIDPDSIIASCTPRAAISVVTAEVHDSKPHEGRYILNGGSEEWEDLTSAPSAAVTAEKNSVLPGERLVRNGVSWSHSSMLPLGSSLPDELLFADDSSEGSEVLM
Sequence of human MER (528-end) (Q12866 528-999 limits assumed): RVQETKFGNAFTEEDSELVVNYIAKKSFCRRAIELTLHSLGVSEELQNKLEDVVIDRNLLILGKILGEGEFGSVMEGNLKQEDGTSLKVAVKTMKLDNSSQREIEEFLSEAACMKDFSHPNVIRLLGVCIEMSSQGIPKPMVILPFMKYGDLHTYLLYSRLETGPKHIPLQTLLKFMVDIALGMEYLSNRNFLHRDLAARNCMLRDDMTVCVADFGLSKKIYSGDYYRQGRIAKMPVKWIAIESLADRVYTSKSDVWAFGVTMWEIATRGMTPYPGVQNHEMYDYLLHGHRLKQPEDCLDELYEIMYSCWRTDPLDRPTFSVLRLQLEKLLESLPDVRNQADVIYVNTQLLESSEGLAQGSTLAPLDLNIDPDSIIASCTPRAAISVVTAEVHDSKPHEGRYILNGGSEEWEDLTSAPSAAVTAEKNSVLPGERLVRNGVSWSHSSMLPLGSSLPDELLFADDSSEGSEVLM

Usually IC50 stands for the concentration at which inhibition is half-maximal. In the case of `CCN(c1ccc2cc(C(=O)N3CC[C@@H](NC(=O)c4cc(-c5cnn(C)c5)cnc4N)C3)ccc2c1)C1CC(C)(C)N(C)C(C)(C)C1` [Example 721, (R)-2-amino-N-(1-(6-(ethyl(1,2,2,6,6-pentamethylpiperidin-4-yl)amino)-2-naphthoyl)pyrrolidin-3-yl)-5-(1-methyl-1H-pyrazol-4-yl)nicotinamide], the IC50 in assay [1] lay within 10 to 100 nM; in assay [2], 100 to 500 nM.

As to `CN1C(C)(C)CC(Nc2ccc3cc(C(=O)N4CC[C@@H](NC(=O)c5cc(-c6cnn(C)c6)cnc5N)C4)ccc3c2)CC1(C)C` [Example 722, (R)-2-amino-5-(1-methyl-1H-pyrazol-4-yl)-N-(1-(6-((1,2,2,6,6-pentamethylpiperidin-4-yl)amino)-2-naphthoyl)pyrrolidin-3-yl)nicotinamide], the IC50 in assay [1] and in assay [2] was greater than 1000 nM throughout.

For `Cn1cc(-c2cnc(N)c(C(=O)NC[C@@H]3CCCN3C(=O)c3ccc(-c4ccccc4)cc3)c2)cn1` [Example 734, (S)—N-((1-([1,1′-biphenyl]-4-carbonyl)pyrrolidin-2-yl)methyl)-2-amino-5-(1-methyl-1H-pyrazol-4-yl)nicotinamide], the IC50 in assay [1] and in assay [2] was greater than 1000 nM in each case.

Take `Cn1cc(-c2cnc(N)c(C(=O)NC[C@@H]3CCCN3C(=O)c3cccc(-c4ccccc4)c3)c2)cn1` [Example 735, (S)—N-((1-([1,1′-biphenyl]-3-carbonyl)pyrrolidin-2-yl)methyl)-2-amino-5-(1-methyl-1H-pyrazol-4-yl)nicotinamide]: the IC50 in assay [1] and in assay [2] was greater than 1000 nM each time.

Turning to `Cn1cc(-c2cnc(N)c(C(=O)NC[C@H]3CCCN3C(=O)c3cccc(-c4ccccc4)c3)c2)cn1` [Example 737, (R)—N-((1-([1,1′-biphenyl]-3-carbonyl)pyrrolidin-2-yl)methyl)-2-amino-5-(1-methyl-1H-pyrazol-4-yl)nicotinamide], the IC50 in assay [1] and in assay [2] was greater than 1000 nM each time.

For `Cn1cc(-c2cnc(N)c(C(=O)NC[C@H]3CCN(C(=O)c4ccc(-c5ccccc5)cc4)C3)c2)cn1` [Example 740, (R)—N-((1-([1,1′-biphenyl]-4-carbonyl)pyrrolidin-3-yl)methyl)-2-amino-5-(1-methyl-1H-pyrazol-4-yl)nicotinamide], the IC50 in assay [1] and in assay [2] was greater than 1000 nM throughout.

As to `Cn1cc(-c2cnc(N)c(C(=O)NC[C@H]3CCN(C(=O)c4cccc(-c5ccccc5)c4)C3)c2)cn1` [Example 741, (R)—N-((1-([1,1′-biphenyl]-3-carbonyl)pyrrolidin-3-yl)methyl)-2-amino-5-(1-methyl-1H-pyrazol-4-yl)nicotinamide], the IC50 in assay [1] and in assay [2] was greater than 1000 nM throughout.

For the molecule `Cn1cc(-c2cnc(N)c(C(=O)N[C@@H]3CCN(C(=O)c4ccc(-c5ccc(CO)cc5)cc4)C3)c2)cn1` [Example 747, (R)-2-amino-N-(1-(4′-(hydroxymethyl)-[1,1′-biphenyl]-4-carbonyl)pyrrolidin-3-yl)-5-(1-methyl-1H-pyrazol-4-yl)nicotinamide], the IC50 in assay [1] was 100 to 1000 nM; in assay [2] it was greater than 1000 nM.

Regarding `Cn1cc(-c2cnc(N)c(C(=O)N[C@@H]3CCN(C(=O)c4ccc(-c5cccc(CO)c5)cc4)C3)c2)cn1` [Example 748, (R)-2-amino-N-(1-(3′-(hydroxymethyl)-[1,1′-biphenyl]-4-carbonyl)pyrrolidin-3-yl)-5-(1-methyl-1H-pyrazol-4-yl)nicotinamide], the IC50 in assay [1] was in the range of 10 to 100 nM; in assay [2], 100 to 500 nM.

Turning to `Cn1cc(-c2cnc(N)c(C(=O)N[C@@H]3CCN(C(=O)c4ccc(-c5ccc(O)nc5)cc4)C3)c2)cn1` [Example 749, (R)-2-amino-N-(1-(4-(6-hydroxypyridin-3-yl)benzoyl)pyrrolidin-3-yl)-5-(1-methyl-1H-pyrazol-4-yl)nicotinamide], the IC50 in assay [1] and in assay [2] was greater than 1000 nM throughout.

`Cn1cc(-c2cnc(N)c(C(=O)N[C@@H]3CCN(C(=O)c4ccc(-c5ccc6ccccc6c5)cc4)C3)c2)cn1` [Example 750, (R)-2-amino-5-(1-methyl-1H-pyrazol-4-yl)-N-(1-(4-(naphthalen-2-yl)benzoyl)pyrrolidin-3-yl)nicotinamide]: the figures for the half-inhibitory concentration (IC50) in assay [1] and in assay [2] were 10 to 100 nM and greater than 1000 nM, respectively.

`Cn1cc(-c2cnc(N)c(C(=O)N[C@@H]3CCN(C(=O)c4ccc(C5=CCNCC5)cc4)C3)c2)cn1` [Example 753, (R)-2-amino-5-(1-methyl-1H-pyrazol-4-yl)-N-(1-(4-(1,2,3,6-tetrahydropyridin-4-yl)benzoyl)pyrrolidin-3-yl)nicotinamide]: the IC50 in assay [1] and in assay [2] was greater than 1000 nM in each case.

For `CN1CC=C(c2ccc(C(=O)N3CC[C@@H](NC(=O)c4cc(-c5cnn(C)c5)cnc4N)C3)cc2)CC1` [Example 754, (R)-2-amino-N-(1-(4-(1-methyl-1,2,3,6-tetrahydropyridin-4-yl)benzoyl)pyrrolidin-3-yl)-5-(1-methyl-1H-pyrazol-4-yl)nicotinamide], the IC50 in assay [1] and in assay [2] was greater than 1000 nM throughout.

As to `Cn1cc(-c2cnc(N)c(C(=O)N[C@@H]3CCN(C(=O)c4ccc(-c5ccc(C6=CCNCC6)cc5)cc4)C3)c2)cn1` [Example 755, (R)-2-amino-5-(1-methyl-1H-pyrazol-4-yl)-N-(1-(4′-(1,2,3,6-tetrahydropyridin-4-yl)-[1,1′-biphenyl]-4-carbonyl)pyrrolidin-3-yl)nicotinamide], the IC50 in assay [1] and in assay [2] was greater than 1000 nM each time.

Turning to `Cn1cc(-c2cnc(N)c(C(=O)N[C@@H]3CCN(C(=O)c4ccc(-c5ccc6c(ccn6C)c5)cc4)C3)c2)cn1` [Example 756, (R)-2-amino-N-(1-(4-(1-methyl-1H-indol-5-yl)benzoyl)pyrrolidin-3-yl)-5-(1-methyl-1H-pyrazol-4-yl)nicotinamide], the IC50 is 100 to 1000 nM in assay [1] and greater than 1000 nM in assay [2].

With `Cn1cc(-c2cnc(N)c(C(=O)N[C@@H]3CCN(C(=O)c4ccc(-c5ccc6c(cnn6C)c5)cc4)C3)c2)cn1` [Example 757, (R)-2-amino-N-(1-(4-(1-methyl-1H-indazol-5-yl)benzoyl)pyrrolidin-3-yl)-5-(1-methyl-1H-pyrazol-4-yl)nicotinamide], the 50% inhibitory concentration (IC50) in assay [1] was 100 to 1000 nM; in assay [2], greater than 1000 nM.

Regarding `CN(C)CCOc1ccc2cc(C(=O)N3CC[C@@H](NC(=O)c4cc(-c5cnn(C)c5)cnc4N)C3)ccc2c1` [Example 762], the IC50 is 100 to 1000 nM in assay [1] and greater than 1000 nM in assay [2].

Turning to `CN1CCCC1CCOc1ccc2cc(C(=O)N3CC[C@@H](NC(=O)c4cc(-c5cnn(C)c5)cnc4N)C3)ccc2c1` (stereo partly shown) [Example 764], the IC50 is 100 to 1000 nM in assay [1] and greater than 1000 nM in assay [2].

Consider `Cn1cc(-c2cnc(N)c(C(=O)N[C@@H]3CCN(C(=O)c4ccc5cc(OCCN6CCCC6)ccc5c4)C3)c2)cn1` [Example 765, (R)-2-amino-5-(1-methyl-1H-pyrazol-4-yl)-N-(1-(6-(2-(pyrrolidin-1-yl)ethoxy)-2-naphthoyl)pyrrolidin-3-yl)nicotinamide], for which the values for the IC50 in assay [1] and in assay [2] were 100 to 1000 nM and greater than 1000 nM, respectively.

Turning to `CN(C)CCCOc1ccc2cc(C(=O)N3CC[C@@H](NC(=O)c4cc(-c5cnn(C)c5)cnc4N)C3)ccc2c1` [Example 766, (R)-2-amino-N-(1-(6-(3-(dimethylamino)propoxy)-2-naphthoyl)pyrrolidin-3-yl)-5-(1-methyl-1H-pyrazol-4-yl)nicotinamide], the IC50 in assay [1] was 100 to 1000 nM; in assay [2], greater than 1000 nM.

On to `CN1CCC(COc2ccc3cc(C(=O)N4CC[C@@H](NC(=O)c5cc(-c6cnn(C)c6)cnc5N)C4)ccc3c2)CC1` [Example 767, (R)-2-amino-5-(1-methyl-1H-pyrazol-4-yl)-N-(1-(6-((1-methylpiperidin-4-yl)methoxy)-2-naphthoyl)pyrrolidin-3-yl)nicotinamide], for which the IC50 in assay [1] was 100 to 1000 nM; in assay [2], greater than 1000 nM.

For the molecule `Cn1cc(-c2cnc(N)c(C(=O)N[C@@H]3CCN(C(=O)c4ccc(OCc5ccc([N+](=O)[O-])cc5)cc4)C3)c2)cn1` [Example 769, (R)-2-amino-5-(1-methyl-1H-pyrazol-4-yl)-N-(1-(4-((4-nitrobenzyl)oxy)benzoyl)pyrrolidin-3-yl)nicotinamide], the IC50 in assay [1] is 100 to 1000 nM; in assay [2], greater than 1000 nM.

`Cn1cc(-c2cnc(N)c(C(=O)N[C@@H]3CCN(C(=O)c4ccc(OCc5cccc([N+](=O)[O-])c5)cc4)C3)c2)cn1` [Example 770, (R)-2-amino-5-(1-methyl-1H-pyrazol-4-yl)-N-(1-(4-((3-nitrobenzyl)oxy)benzoyl)pyrrolidin-3-yl)nicotinamide]: the IC50 in assay [1] was 100 to 1000 nM; in assay [2], greater than 1000 nM.

`Nc1ncc(-c2ccc(F)nc2)cc1C(=O)N[C@@H]1CCN(C(=O)c2ccc(-c3ccc(F)cc3Cl)cc2)C1` [Example 774, (R)-6-amino-N-(1-(2′-chloro-4′-fluoro-[1,1′-biphenyl]-4-carbonyl)pyrrolidin-3-yl)-6^1-fluoro-[3,3′-bipyridine]-5-carboxamide]: the IC50 is 10 to 100 nM in assay [1] and 100 to 500 nM in assay [2].

For the molecule `NC(=O)c1ccccc1-c1cnc(N)c(C(=O)N[C@@H]2CCN(C(=O)c3ccc(-c4ccc(F)cc4Cl)cc3)C2)c1` [Example 776, (R)-2-amino-5-(2-carbamoylphenyl)-N-(1-(2′-chloro-4′-fluoro-[1,1′-biphenyl]-4-carbonyl)pyrrolidin-3-yl)nicotinamide], the IC50 in assay [1] and in assay [2] was greater than 1000 nM throughout.

With `Nc1ncc(-c2ccccc2O)cc1C(=O)N[C@@H]1CCN(C(=O)c2ccc(-c3ccc(F)cc3Cl)cc2)C1` [Example 778, (R)-2-amino-N-(1-(2′-chloro-4′-fluoro-[1,1′-biphenyl]-4-carbonyl)pyrrolidin-3-yl)-5-(2-hydroxyphenyl)nicotinamide], the IC50 in assay [1] is 100 to 1000 nM; in assay [2] it was greater than 1000 nM.
